Data taken from patent publication US6632843B1, “Treatment of bruxism” (priority 2000, dated 2003).

Columns and labels:
[1] = after application
Excerpt: Cyclobenzaprine is a 5-HT2 receptor antagonist and its muscle relaxant effect is due to inhibition of serotonergic neurons.

[2] = taken orally; cited from earlier work

In the case of `CN(C)CCC=C1c2ccccc2C=Cc2ccccc21` [cyclobenzaprine, Cyclobenzaprine], the “time to clinical improvement” value [1] is listed as “as early as the first 20 minutes”, the half life [2] is listed as “as long as one to three days” and the plasma protein binding [2] is listed as “highly bound to plasma proteins”.
